Reference: patent US20250304545A1, “WATER-SOLUBLE HETEROCYCLYL POLYMETHINE CHROMOPHORES” (The Regents of the University of California, priority 2022, published 2025)

Experiments:
[1] = Photophysical properties of exemplary compounds in DCM solution; assay type: physicochemical; settings: for λmax (first value of the cell): first of two wavelengths; for λmax (second value of the cell): second of two wavelengths
[2] = reference value; cited from earlier work
[3] = in vivo; cited from earlier work
[4] = Systemic vasculature SWIR imaging with SulfoChrom7, compared with ICG; assay type: in vivo, mice; settings: for distribution within 30 min: co-injection of SulfoChrom7 and ICG, 10 nmol each i.v.
Procedure: (§1) Animal experiments were conducted in conformity with guidelines from the University of California, Los Angeles with protocols approved by the Animal Research Committee (protocol number ARC-2018-047). Non-invasive whole mouse imaging was performed on athymic nude female mice (5-15 weeks old), purchased from Charles River Laboratories. Mice were anesthetized with inhaled 2-4% isoflurane. Tail vein injections were performed with a catheter assembled from a 29-gauge needle connected through plastic tubing to a syringe prefilled with isotonic saline solution. The bevel of the needle was then inserted into the tail vein and secured using tissue adhesive. The plastic tubing was then connected to a syringe (30-gauge needle) prefilled with the compound of interest. All solutions were filtered through a 0.22 μm syringe filter prior to i.v. injection.
(§2) Imaging instrument was installed according to published procedure, using an Allied Vision Goldeye G-032 Cool TEC2 camera with illumination from LU0975DLU350-S30AN03 (35 W, 975 nm laser) and LU0785D250-U70AN (25 W, 785 nm laser) Lumics laser units to record images at 14-bit depth. Illumination was adjusted to 100 mW/cm^2 for 975 nm and 50 mW/cm^2 for 785 mm. Excitation was provided at 975 nm for Sulfo-, Ammon-, Zwit- and PhosphoChrom7, and at 785 nm for ICG. Fluorescence images were recorded with an 1100 nm long-pass filter unless otherwise noted. Dual-channel imaging (SulfoChrom7/ICG, or fluorescent imaging/bright field imaging) was performed with pulsed excitation that matches the detection window of the camera, or persistent ambient fluorescent lighting for bright field images to be subtracted as background in the fluorescence channel.
Images were processed using the Fiji distribution of ImageJ. All images were background subtracted to correct for non-linearities in the detector and/or excitation. […] Videos were saved as raw avi and cropped, frame-rate adjusted and compressed with FFmpeg. For dual-channel imaging, emission of the SulfoChrom7 and AmmonChrom7 in 785 nm channel was estimated to be 9.0% intensity of their 975 nm image as derived from the capillary experiment, and subtracted from the 785 nm channel.

SK-OV-3 tumors = experiment: Fluorescence tracking of growth of SK-OV-3 tumor xenografts; assay type: in vivo, mice; settings: 39 days after xenograft, 4 h after i.v. OTL-38
Procedure: A375 or SK-OV-3 cells were grown to confluency and incubated with full media supplemented with 50 μM of AmmonChrom7 for 12 h. Cells were then incubated with full media for 6 h, followed by digestion with trypsin-EDTA. The cell pellet was further washed with PBS (×3). For A375 cells, stained or unstained cells were suspended in 1:1 PBS and Matrigel; 100 μL of cell suspension (3.3 million cells) were injected to each site. Tumor 2D-projected sizes A were monitored by caliper measurement of long diameter a and short diameter b of the tumors and estimated by the following equation:
For SK-OV-3 cells, cells were suspended in 1:1 PBS and Matrigel; 100 μL of cell suspension (2.5 million cells) was injected to each site. […]
as §2, with “Illumination was adjusted to 100 mW/cm^2 for 975 nm and 50 mW/cm^2 for 785 mm. Excitation was provided at 975 nm for Sulfo-, Ammon-, Zwit- and PhosphoChrom7, and at 785 nm for ICG.” left out

[5] = Bone imaging in mice with PhosphoChrom7; assay type: in vivo
Procedure: as §1, §2
Images were processed using the Fiji distribution of ImageJ. All images were background subtracted to correct for non-linearities in the detector and/or excitation. […] Videos were saved as raw avi and cropped, frame-rate adjusted and compressed with FFmpeg. […]

HEK293 cells [6] = experiment: MTT toxicity assay; assay type: cell-based; settings: low concentrations
Procedure: HEK293 cells were split into three cultures as replicates. For each replicate, HEK293 cells were passed onto flat-bottomed 96-well plate to 40-50% confluency and left 6 h for adhesion. Different concentrations of compounds were added to the medium (1:40 dilution from aqueous stock solution) in quadruplicate and incubated for 18 h. After incubation, cells were treated with 100 μL of full media containing 0.5 mg/mL MTT for 2 h, followed by addition of 100 μL of aqueous solution containing 10% SDS and 1:1000 HCl. After 3-4 h incubation, cell viability was determined by measuring the absorbance at 490 nm using a plate reader.

[7] = Aggregation / monomeric dispersion by absorption spectra in water, MeOH/H2O and serum; assay type: physicochemical; settings: for aggregation state: in water
Text: (§3) Absorption spectra were collected on a JASCO V-770 UV-visible/NIR spectrophotometer after blanking with the appropriate solvent. Photoluminescence spectra were obtained on a Horiba Instruments PTI QuantaMaster Series fluorometer. Fetal bovine serum (FBS) or bovine serum were purchased from Gibco. Quartz cuvettes (10 mm×10 mm) were used for absorption and photoluminescence measurements unless otherwise noted. All spectra were obtained at ambient temperature. Fluorescence quantum yield was measured with 830 nm excitation using Flav7 as a reference (ΦF=0.61%).

[8] = Hydroxyapatite binding assay; settings: 50 μM dye in bovine serum, sequential washes
Procedure: Hydroxyapatite powder was purchased from Acros Organics. To a suspension of 10 mg of hydroxyapatite in 100 μL of bovine serum was added 50 μM PhosphoChrom7 and the mixture was placed on a revolver for 30 min for initial binding, followed by centrifugation to remove supernatant. For washing, the pellet was resuspended in 100 μL of bovine serum by vortexing and placed on a revolver for 30 min followed by centrifugation to remove supernatant. The pellet was finally resuspended in 100 μL of bovine serum for imaging under the SWIR camera. For quantification, each centrifuge tube containing the suspension was recorded at the center of the illumination/viewing field to calculate mean fluorescence intensity at the bottom area of the tube.

[9] = Photophysical characterization of Chrom7 dyes (absorption, emission, quantum yield); assay type: physicochemical
Text: as §3

HEK293 cells [10] = experiment: Uptake and retention of dyes in cells (absorbance of cell lysates); assay type: cell-based; settings: 50 μM dye
Procedure: HEK293, SK-OV-3 or A375 cells were split into three cultures as replicates. For each replicate, cells were passed onto 12-well or 24-well plates and grown until ca. 80% confluency. Each well was incubated with 50 μM of AmmonChrom7 for 6 h, and the cells were washed with PBS and incubated in MEM medium supplemented with 1% FBS. At given time points, the cell media were removed and cells were lysed with lysis buffer (150 μL, containing 1% Triton X-100, 0.1% w/v SDS and 0.1% w/v sodium deoxycholate) and diluted with bovine serum (300 μL). The cell lysate was collected and frozen at −20° C. until analysis. To quantify dye content, maximum absorption was used to represent the dye concentration. Scattering was estimated and subtracted with absorption at 1050-1100 nm, using the following equation for fitting: […]

Stability assay in FBS = assay type: in vitro ADME; settings: over 2 days at 37° C. in FBS, 1 μM dye
Procedure: Dyes were diluted to 1 μM in 1 mL of FBS containing 0.02% w/v NaN3 and placed in disposable cuvettes. The cuvettes were sealed with parafilm and placed in 37° C. incubator until given time points. Absorption spectra were taken using the maximum absorption to represent the dye concentration. Each condition was performed in triplicate.

[11] = Biodistribution of water soluble SWIR fluorophores after i.v. injection; assay type: in vivo, mice; settings: 20 nmol into tail vein
Procedure: as §1, with “The plastic tubing was then connected to a syringe (30-gauge needle) prefilled with the compound of interest. All solutions were filtered through a 0.22 μm syringe filter prior to i.v. injection.” left out
as §2, with “Illumination was adjusted to 100 mW/cm^2 for 975 nm and 50 mW/cm^2 for 785 mm. Excitation was provided at 975 nm for Sulfo-, Ammon-, Zwit- and PhosphoChrom7, and at 785 nm for ICG.” left out, “channel. […]” for “channel.”

[12] = Brightness comparison by SWIR imaging of dyes in FBS in capillaries; assay type: physicochemical
Procedure: as §2

For `Cc1cc(C)cc(C2=C(/C=C/C3=CC(c4ccccc4)=[SH]c4cc(N(C)C)ccc43)CCC/C2=C\C=C2/C=C(c3ccccc3)Sc3cc(N(C)C)ccc32)c1` [DiMePh SFlav7], the ϕF [1] was 0.11 ± 0.01%, the “λmax (first value of the cell)” value [1] was 1079 nm and the “λmax (second value of the cell)” value [1] was 1107 nm.

For `CN(C)c1ccc2c(c1)SC(c1ccccc1)=C/C2=C\C=C1/CCCC(/C=C/c2cc(-c3ccccc3)[s+]c3cc(N(C)C)ccc23)=C1c1cc(C(C)(C)C)cc(C(C)(C)C)c1` [DitBuPh SFlav7], the ϕF [1] was 0.11 ± 0.02%, the “λmax (first value of the cell)” value [1] was 1079 nm and the “λmax (second value of the cell)” value [1] was 1107 nm.

For `CN(C)c1ccc2c(c1)OC(c1ccccc1)=C/C2=C\C=C1/CCCC(/C=C/c2cc(-c3ccccc3)[o+]c3cc(N(C)C)ccc23)=C1Cl` [Flav7], the “ΦF of the reference for fluorescence quantum yield” value [2] is given as 0.61%.

For `CC1(C)C(/C=C/C=C/C=C/C=C2\N(CCCCS(=O)(=O)O)c3ccc4ccccc4c3C2(C)C)=[N+](CCCCS(=O)(=O)[O-])c2ccc3ccccc3c21` [ICG, indocyanine green, reference compound], the “time of hepatobiliary clearance” value [3] is listed as ≤ 6 h and the “distribution within 30 min” value [4] is listed as “most ICG accumulated in the liver with secretion into the intestine, leaving negligible signal in the mouse body”.

For `CC1(C)C(/C=C/C2=C(Oc3ccc(C[C@H](NC(=O)c4ccc(NCc5cnc6nc(N)[nH]c(=O)c6n5)cc4)C(=O)[O-])cc3)C(=C/C=C3\N(CCCCS(=O)(=O)[O-])c4ccc(S(=O)(=O)[O-])cc4C3(C)C)/CCC2)=[N+](CCCCS(=O)(=O)[O-])c2ccc(S(=O)(=O)[O-])cc21.[H+].[H+].[H+].[H+]` [OTL-38], the “specificity of tumor staining ex vivo” value (SK-OV-3 tumors) was “much non-specific accumulation”.

For `Cc1ccccc1C1=C(C=Cc2cc(C(C)(C)C)[o+]c3cc(N(Cc4cn(CCCP(=O)(O)O)nn4)Cc4cn(CCCP(=O)(O)O)nn4)ccc23)CCCC1=CC=C1C=C(C(C)(C)C)Oc2cc(N(Cc3cn(CCCP(=O)(O)O)nn3)Cc3cn(CCCP(=O)(O)O)nn3)ccc21` [PhosphoChrom7], the “organ distribution on dissection” value ([5]; 54 h after i.v. injection) was “the liver is the major target of the dye”, the “time at which bone structures begin to feature” value ([5]; after i.v. injection) was 8 h and the clearance ([5]; compared to previous hydrophilic dyes) was “slightly faster clearance”. For the same compound, the toxicity (HEK293 cells [6]) was “mild”, the aggregation peak ([7]; in FBS) was 760 nm and the solubility ([7]; in FBS) was “lower than the Sulfo-, Ammon-, or ZwitChrom7”. For the same compound, the binding towards hydroxyapatite [8] was “strong binding affinity”.

For `C#CCN(CC#C)c1ccc2c(c1)OC(C(C)(C)C)=C/C2=C\C=C1/CCCC(/C=C/c2cc(C(C)(C)C)[o+]c3cc(N(CC#C)CC#C)ccc23)=C1c1ccccc1C` [Propargyl-Chrom7], the εmax ([9]; in MeOH) was 14 ± 1 10^4 M^−1cm^−1 and the λmax ([9]; in MeOH) was 928 nm.

With `Cc1ccccc1C1=C(C=Cc2cc(C(C)(C)C)[o+]c3cc(N(Cc4cn(CCCS(=O)(=O)[O-])nn4)Cc4cn(CCCS(=O)(=O)[O-])nn4)ccc23)CCCC1=CC=C1C=C(C(C)(C)C)Oc2cc(N(Cc3cn(CCCS(=O)(=O)[O-])nn3)Cc3cn(CCCS(=O)(=O)[O-])nn3)ccc21.[Na+].[Na+].[Na+]` [SulfoChrom7] the “cellular uptake (absorbance of cell lysates)” value (HEK293 cells [10]) was “minimal”, the εmax ([9]; in FBS) was 9.5 10^4 M^−1cm^−1 and the λmax ([9]; in FBS) was 963 nm. The φF ([9]; in FBS) was 0.0056 ± 0.0003, the εmax ([9]; in MeOH) was 16.5 ± 0.2 10^4 M^−1cm^−1 and the λmax ([9]; in MeOH) was 938 nm. The φF ([9]; in MeOH) was 0.0106 ± 0.0002, the “brightness ratio over ICG in veins, maximum over time” value ([4]; co-injection 10 nmol each, 1300 nm LP filter) was 7-8 fold and the “distribution within 30 min” value [4] was “still reflected the superficial vasculature map while also displaying liver accumulation”. The “amount of dye that enables video-rate imaging of liver and vasculature” value ([4]; tail vein, 33 fps, 1100 nm LP filter) was 0.05 nmol, the “fraction of dye left” value (Stability assay in FBS) was “around ½” and the “distribution after 3 h” value [11] was “diffuse signal through the mouse body, but still with substantial liver accumulation”. For the same compound, the aggregation state [7] was “discernible monomer absorption”, the “emission in 785 nm channel as intensity of the 975 nm image” value ([12]; derived from the capillary experiment) was 9.0% and the “SWIR brightness compared with ICG / among the dyes” value ([12]; in FBS, 975 nm excitation (ICG 785 nm)) was “brightest of the fluorophores”.

For `Cc1ccccc1C1=C(C=Cc2cc(C(C)(C)C)[o+]c3cc(N(Cc4cn(CCC[N+](C)(C)CCCS(=O)(=O)[O-])nn4)Cc4cn(CCC[N+](C)(C)CCCS(=O)(=O)[O-])nn4)ccc23)CCCC1=CC=C1C=C(C(C)(C)C)Oc2cc(N(Cc3cn(CCC[N+](C)(C)CCCS(=O)(=O)[O-])nn3)Cc3cn(CCC[N+](C)(C)CCCS(=O)(=O)[O-])nn3)ccc21.[Cl-]` [ZwitChrom7], the “cellular uptake (absorbance of cell lysates)” value (HEK293 cells [10]) was “minimal”, the quantum yield ([9]; in FBS) was 0.32% and the εmax ([9]; in FBS) was 11.5 10^4 M^−1cm^−1. For the same compound, the λmax ([9]; in FBS) was 960 nm, the φF ([9]; in FBS) was 0.0032 ± 0.0003 and the εmax ([9]; in MeOH) was 16.4 ± 0.4 10^4 M^−1cm^−1. The λmax ([9]; in MeOH) was 940 nm, the φF ([9]; in MeOH) was 0.0101 ± 0.0004 and the “fraction of dye left” value (Stability assay in FBS) was 1/10. For the same compound, the “distribution after 3 h” value [11] was “diffuse signal through the mouse body, but still with substantial liver accumulation” and the aggregation state [7] was “primarily aggregated”.
